In patent US20190160035A1, “METHOD OF TREATMENT” (QBIOTICS LIMITED, priority 2016, published 2019):
Several values for one entry are separate records, joined by “and”; a condition that tells them apart may be missing. Equal entries are not always repeated.

Key:
MCT = experiment: Example 5: neoadjuvant prednisolone action (tumor change between screening and immediate pre-treatment evaluation); assay type: in vivo, Canis lupus familiaris (dog)
Description: (§1) Each supervising veterinarian was given latitude to provide and record prophylactic and supportive medications as deemed appropriate for managing potential paraneoplastic events and tumor site necrosis following Compound 1 treatment. However, prednisolone and antihistamines were used as co-therapy. Prednisolone therapy commenced on Day −1 and continued for a further 7 days. H1 and H2 antihistamine therapy (chlorpheniramine and famotidine respectively) commenced on the morning of drug treatment and continued for a further 6 days (see Table 23).
(§2) RECIST v.1.1 results are summarised in Table 28 which also includes a measure of neoadjuvant prednisolone action (potential tumor shrinkage) between screening and immediate pre-treatment tumor evaluation. Sixteen (16) dogs and eighteen (18) tumors were treated. Raw data for RECIST assessment was collected on Day 0 (immediately pre-treatment) and on Day 28 for fifteen (15) cases. […] With the remaining three (3) cases (C05-T-18, C05-V-01, and C05-V-02), the dogs were not available on Day 28 for RECIST assessment. For dog C05-T-18, the injection site was measured as CR on Days 21 and 37. […] For dog C05-V-01, the injection site was measured as PR on Days 21 and 37 (55% and 60% RECIST reduction respectively). […] For dog […], due to the progressive nature of disease, the animal was removed from study on Day 21.

[1] = test system: MCT (cutaneous and subcutaneous); experiment: Example 5: Compound 1 injection with oral prednisolone and antihistamine co-therapy, RECIST v.1.1 tumor response; assay type: in vivo, Canis lupus familiaris (dog); conditions: 1 mg/kg/day, 24 h pre-treatment and 7 days post-treatment
Description: This study investigates the efficacy and safety of Compound 1 injection for MCT treatment in the presence of corticosteroids administered under defined clinical situations.
Dogs were selected for the study if they met the criteria in Table 1 (Example 1) but where the dog has at least one MCT.
Wherever possible, the tumor and a 2 cm border surrounding the tumor was shaved prior to treatment. To deliver the drug, the needle of the dosing syringe was inserted into the tumor at the injection point and moved in a radial manner in 2- and 3-dimensions with drug delivered to the tumor mass. Study dogs were clinically examined at 2-4 and 24 hours, and 7 (+2), 14 (+2) and 28 (+2) days post-treatment (and unscheduled visits at attending veterinarian discretion).
as §1, §2

[2] = following 24 h neoadjuvant prednisolone, dog C05-T-17
[3] = per case (one dog tumor per line), negative = increase

C[C@]12C=CC(=O)C=C1CC[C@@H]1[C@@H]2[C@@H](O)C[C@@]2(C)[C@H]1CC[C@]2(O)C(=O)CO [prednisolone]
RECIST reduction following 24 h prednisolone administration, Mean (MCT; Mean of cases): 5%
Tumor vol (cm^3) reduction following 24 h prednisolone administration, Mean (MCT; Mean of cases): 27%
RECIST reduction following 24 h prednisolone administration, Median (MCT; Median of cases): 6%
Tumor vol (cm^3) reduction following 24 h prednisolone administration, Median (MCT; Median of cases): 31%
Decrease in RECIST measure from screening to pre-treatment evaluation (MCT; [2]): 6%
Decrease in tumor volume from screening to pre-treatment evaluation (MCT; [2]): 31%
Tumor response following 24 h prednisolone administration (screening to immediate pre-treatment): RECIST reduction (MCT; [3]): −5% and 8% and −23% and 39% and −12% and 0% and 16% and −8% and 28% and 12% and 20% and 6% and 34% and −26% and −20%
Tumor response following 24 h prednisolone administration (screening to immediate pre-treatment): Tumor vol (cm^3) reduction (MCT; [3]): 23% and 62% and −36% and 71% and 61% and 13% and 59% and 35% and 45% and 27% and 31% and 76% and −118% and 14%
Effect of oral prednisolone on drug (Compound 1) action [1]: limited or no suppressive effects
